Measurements published in PMC9318729 (Toxins, 2022).
Read-outs that look alike come from different tables or passages of the source. No end group written: not given here.

Assays:
A549 cells [1] = test: Effect of pathway inhibitors on Smp24-induced cytotoxicity (MTT and LDH release); type: cell-based, human; settings: inhibitor pre-incubated 30 min (40 μM Necrostatin-1, 1 μM Cyclosporine A), then 5 μM Smp24 for 12 h
Description: MTT assay was performed to analyze cellular viability as previously reported by us. […] […] After incubation, 10 µL MTT (5 mg/mL) was added before incubation for 4 h at 37 °C in the dark. Subsequently, the cell medium was discarded, and 200 µL DMSO was applied into each well before the absorbance value at 490 nm was determined via the microplate reader (Tecan Company, Männedorf, Switzerland). Cell proliferation was further detected by the BeyoClick™ EdU cell proliferation kit with Alexa Fluor 488 (Beyotime Institute of Biotechnology, Shanghai, China) according to the protocol of manufacturer. In brief, A549 cells (2 × 10^5 cells/well) were grown in 6-well plates and exposed to different concentrations of Smp24 (0, 1.25, 2.5 and 5 μM) for 24 h. Then, the cells were incubated with EdU for 2 h and stained with Alexa Fluor 488 for 30 min in the dark before cell fluorescence intensity was measured by flow cytometry (Becton Dickinson Company, Franklin Lakes, NJ, USA). The experiments had been performed in triplicate.
The LDH release assay was carried out with a commercial kit (Beyotime Institute of Biotechnology, Shanghai, China) following the manufacturer’s manual. […] Thereafter, a microplate reader (Tecan Company, Männedorf, Switzerland) was used to measure the absorbance value at 490 nm. […]

MRC-5 cells = test: MTT cell viability assay, normal cells; type: cell-based; settings: 24 h treatment, mean ± SEM (n = 3), read-out: IC50 against MRC-5 normal cells
Description: (§1) MTT assay was performed to analyze cellular viability as previously reported by us. Briefly, A549, H3122, PC-9, H460 and MRC-5 cells (1 × 10^4 cells/well) were grown in 96-well plates and exposed to the different concentrations of Smp24 (1.25–20 μM) with 24 h. […] After incubation, 10 µL MTT (5 mg/mL) was added before incubation for 4 h at 37 °C in the dark. Subsequently, the cell medium was discarded, and 200 µL DMSO was applied into each well before the absorbance value at 490 nm was determined via the microplate reader (Tecan Company, Männedorf, Switzerland). Cell proliferation was further detected by the BeyoClick™ EdU cell proliferation kit with Alexa Fluor 488 (Beyotime Institute of Biotechnology, Shanghai, China) according to the protocol of manufacturer. In brief, A549 cells (2 × 10^5 cells/well) were grown in 6-well plates and exposed to different concentrations of Smp24 (0, 1.25, 2.5 and 5 μM) for 24 h. Then, the cells were incubated with EdU for 2 h and stained with Alexa Fluor 488 for 30 min in the dark before cell fluorescence intensity was measured by flow cytometry (Becton Dickinson Company, Franklin Lakes, NJ, USA). The experiments had been performed in triplicate.

A549 xenograft = A549 xenograft mice model, in vivo antitumor experiment; set-up: species or system BALB/c nude mice; settings: 2 mg/kg every three days for 18 days, n = 5
Description: A total of 10 BALB/c nude mice of both sexes (18–20 g, 6 weeks) were acquired from the Laboratory Animal Center of Southern Medical University and were raised in a specific pathogen-free mini-barrier system of the central animal facility of Southern Medical University under controlled conditions (60% humidity, 21 ± 2 °C room temperature, and 12 h light-dark cycle). The experimental protocols (ethical approval number: L2019226 on 11 November 2019) involving animals were approved by the Animal Ethics Committee of Southern Medical University and were implemented in the light of the international regulations for animal research. The animals were placed in an induction chamber, and anesthesia was induced with 5% isoflurane before sacrificed by cervical dislocation.
First, 5 × 10^6 A549 cells with viability over 90% were inoculated subcutaneously into the right flank per mouse. Tumor growth was examined daily by palpation and the diameter was measured with calipers in two planes. Tumor volumes were counted with the following formula: volume (mm^3) = (smallest diameter)^2 × (largest diameter)/2. Then, the mice were randomized into two groups (n = 5 mice/group) for physiological saline and Smp24 treatment. […] The body weight of mice and tumor volumes were recorded daily. […]

A549 cells [2] = test: MTT cell viability assay; type: cell-based, human; settings: 24 h treatment
Description: as §1

H3122 cells = test: MTT cell viability assay; type: cell-based, human; settings: 24 h treatment
Description: as §1

H460 cells = test: MTT cell viability assay; type: cell-based, human; settings: 24 h treatment
Description: as §1

PC-9 cells = test: MTT cell viability assay; type: cell-based, human; settings: 24 h treatment
Description: as §1

Acute toxicity analysis = type: in vivo, mice; settings: 5 and 10 mg/kg intraperitoneal, 3 animals per group
Description: To detect the acute toxicity of Smp24 in vivo, the mice were weighed and randomly divided into three groups with 3 animals each, and Smp24 (5 mg/kg and 10 mg/kg) and saline were intraperitoneally administered into mice of different groups. At 48 h after injection, serum and organ tissues from mice were collected for blood biochemical detection and organ weight measurement, respectively.

NSCLC tumor = settings: subcutaneous injection, cited from earlier work
Description: For most peptides, despite the cogent evidence about their antitumor effects in vitro, their clinical applications have met with major obstacles owing to several issues, including their non-specific cellular cytotoxicity and rapid degradation in the blood. In order to further verify the antitumor effects of Smp24 in vivo, a tumor-burdened experiment was carried out. […] Furthermore, it ...

## CN1C(=O)C(Cc2c[nH]c3ccccc23)NC1=S (stereo not shown) [Necrostatin-1]
A549 cells [1]
  Inhibition of Smp24-induced cytotoxicity and necrosis of A549: can inhibit

## IWSFLIKAATKLLPSLFGGGKKDS [Smp24]
MRC-5 cells
  IC50: ~14.7 µM
A549 xenograft
  Weight changes of body and organs (heart, lung, liver, spleen, kidney): did not affect
A549 cells [2]; normal cells MRC-5
  Selectivity index, A549: 3.61
A549 cells [2]; MTT, mean ± SEM (n = 3), read-out: IC50 against A549 cells
  IC50: ~4.06 µM
H3122 cells; normal cells MRC-5
  Selectivity index, H3122: 3.16
H3122 cells; MTT, mean ± SEM (n = 3), read-out: IC50 against H3122 cells
  IC50: ~4.64 µM
H460 cells; normal cells MRC-5
  Selectivity index, H460: 2.07
H460 cells; MTT, mean ± SEM (n = 3), read-out: IC50 against H460 cells
  IC50: ~7.07 µM
PC-9 cells; normal cells MRC-5
  Selectivity index, PC-9: 2.32
PC-9 cells; MTT, mean ± SEM (n = 3), read-out: IC50 against PC-9 cells
  IC50: ~6.34 µM
Acute toxicity analysis
  Animal death after the first day's injection: no animal death
Acute toxicity analysis; 48 h after injection
  Heart, lung, liver, spleen and kidney weights: did not change significantly
  Plasma AST, ALT, BUN and Cre: did not change significantly

## melittin
NSCLC tumor; 0.5 mg/kg
  Suppression of NSCLC tumor growth: 27%
NSCLC tumor; 10 mg/kg
  Suppression of NSCLC tumor growth: 61%
